Assay results taken from ChEMBL document CHEMBL6078666, “Discovery of Novel Coumarin Pleuromutilin Derivatives as Potent Anti-MRSA Agents” (J Med Chem, 2024).
Values after ≈ are worked out from the molar mass of the structure shown.

How the values were obtained:
Assay type in all cases: functional
Streptococcus pneumoniae [1] = test: Antibacterial activity against penicillin-resistant Streptococcus pneumoniae ATCC 51916 assessed as bacterial growth inhibition measured after 20 hrs by broth dilution method
Staphylococcus aureus [2] = test: Ratio of MBC to MIC against Staphylococcus aureus ATCC 43300
Enterococcus faecium [3] = test: Antibacterial activity against vancomycin-resistant Enterococcus faecium ATCC 700221 assessed as bacterial growth inhibition measured after 20 hrs by broth dilution method
[4] = test system: Staphylococcus epidermidis; test: Ratio of MBC to MIC against Staphylococcus epidermidis ATCC 51625
[5] = test system: Staphylococcus epidermidis; test: Antibacterial activity against Staphylococcus epidermidis ATCC 51625 assessed as bacterial growth inhibition measured after 20 hrs by broth dilution method
Enterococcus faecium [6] = test: Ratio of MBC to MIC against vancomycin-resistant Enterococcus faecium ATCC 700221
Enterococcus faecium [7] = test: Ratio of MBC to MIC against vancomycin-resistant Enterococcus faecium ATCC 51559
Streptococcus pneumoniae [8] = test: Antibacterial activity against penicillin-intermediate Streptococcus pneumoniae ATCC 49619 assessed as bacterial growth inhibition measured after 20 hrs by broth dilution method
Staphylococcus aureus [9] = test: Antibacterial activity against methicillin-resistant Staphylococcus aureus ATCC 43300 assessed as bacterial growth inhibition measured after 20 hrs by broth dilution method
Enterococcus faecium [10] = test: Antibacterial activity against vancomycin-resistant Enterococcus faecium ATCC 51559 assessed as bacterial growth inhibition measured after 20 hrs by broth dilution method
Staphylococcus aureus [11] = test: Antibacterial activity against methicillin-resistant Staphylococcus aureus ATCC 33591 assessed as bacterial growth inhibition measured after 20 hrs by broth dilution method
Streptococcus pneumoniae [12] = test: Ratio of MBC to MIC against penicillin-intermediate Streptococcus pneumoniae ATCC 49619
Streptococcus pneumoniae [13] = test: Ratio of MBC to MIC against penicillin-resistant Streptococcus pneumoniae ATCC 51916
Staphylococcus aureus [14] = test: Ratio of MBC to MIC against methicillin-resistant Staphylococcus aureus ATCC 33591

SMILES	MIC (Streptococcus pneumoniae [1]) [µg/mL]	Ratio (Staphylococcus aureus [2])	MIC (Enterococcus faecium [3]) [µg/mL]	Ratio [4]	MIC [5] [µg/mL]	Ratio (Enterococcus faecium [6])	Ratio (Enterococcus faecium [7])	MIC (Streptococcus pneumoniae [8]) [µg/mL]	MIC (Staphylococcus aureus [9]) [µg/mL]	MIC (Enterococcus faecium [10]) [µg/mL]	MIC (Staphylococcus aureus [11]) [µg/mL]	Ratio (Streptococcus pneumoniae [12])	Ratio (Streptococcus pneumoniae [13])	Ratio (Staphylococcus aureus [14])
C=C[C@]1(C)C[C@@H](OC(=O)CSCCOc2cc(=O)oc3ccc(F)cc23)[C@]2(C)[C@H](C)CC[C@]3(CCC(=O)[C@H]32)[C@@H](C)[C@@H]1O	1 (≈ 1.66 µM)	>4	1 (≈ 1.66 µM)	>4	0.125 (≈ 0.208 µM)	>4	4	1 (≈ 1.66 µM)	0.5 (≈ 0.832 µM)	8 (≈ 13.3 µM)	0.5 (≈ 0.832 µM)	>4	–	–
C=C[C@]1(C)C[C@@H](OC(=O)CSCCOc2cc(=O)oc3ccc(Br)cc23)[C@]2(C)[C@H](C)CC[C@]3(CCC(=O)[C@H]32)[C@@H](C)[C@@H]1O	2 (≈ 3.02 µM)	2	1 (≈ 1.51 µM)	>4	0.25 (≈ 0.378 µM)	2	2	2 (≈ 3.02 µM)	1 (≈ 1.51 µM)	16 (≈ 24.2 µM)	0.25 (≈ 0.378 µM)	>4	4	>4
C=C[C@]1(C)C[C@@H](OC(=O)CSc2cc(=O)oc3ccc(C)cc23)[C@]2(C)[C@H](C)CC[C@]3(CCC(=O)[C@H]32)[C@@H](C)[C@@H]1O	0.125 (≈ 0.226 µM)	>4	0.25 (≈ 0.452 µM)	>4	0.063 (≈ 0.114 µM)	4	2	0.25 (≈ 0.452 µM)	0.125 (≈ 0.226 µM)	2 (≈ 3.62 µM)	0.125 (≈ 0.226 µM)	4	>4	–
C=C[C@]1(C)C[C@@H](OC(=O)CSCCOc2cc(=O)oc3ccc(C)cc23)[C@]2(C)[C@H](C)CC[C@]3(CCC(=O)[C@H]32)[C@@H](C)[C@@H]1O	0.25 (≈ 0.419 µM)	>4	0.125 (≈ 0.209 µM)	>4	0.125 (≈ 0.209 µM)	>4	1	0.063 (≈ 0.106 µM)	0.125 (≈ 0.209 µM)	0.25 (≈ 0.419 µM)	0.25 (≈ 0.419 µM)	2	>4	–
C=C[C@]1(C)C[C@@H](OC(=O)CSc2cc(=O)oc3ccc(Cl)cc23)[C@]2(C)[C@H](C)CC[C@]3(CCC(=O)[C@H]32)[C@@H](C)[C@@H]1O	0.125 (≈ 0.218 µM)	>4	0.125 (≈ 0.218 µM)	>4	0.063 (≈ 0.11 µM)	>4	2	0.125 (≈ 0.218 µM)	0.25 (≈ 0.436 µM)	0.5 (≈ 0.872 µM)	0.125 (≈ 0.218 µM)	2	4	–
C=C[C@]1(C)C[C@@H](OC(=O)CSCCOc2cc(=O)oc3cc(C)ccc23)[C@]2(C)[C@H](C)CC[C@]3(CCC(=O)[C@H]32)[C@@H](C)[C@@H]1O	0.25 (≈ 0.419 µM)	>4	0.125 (≈ 0.209 µM)	4	0.063 (≈ 0.106 µM)	2	1	0.125 (≈ 0.209 µM)	0.25 (≈ 0.419 µM)	0.25 (≈ 0.419 µM)	0.125 (≈ 0.209 µM)	2	4	–
C=C[C@]1(C)C[C@@H](OC(=O)CSCCOc2cc(=O)oc3cc(Br)ccc23)[C@]2(C)[C@H](C)CC[C@]3(CCC(=O)[C@H]32)[C@@H](C)[C@@H]1O	0.25 (≈ 0.378 µM)	>4	0.125 (≈ 0.189 µM)	>4	0.125 (≈ 0.189 µM)	2	2	0.125 (≈ 0.189 µM)	0.25 (≈ 0.378 µM)	0.5 (≈ 0.756 µM)	0.125 (≈ 0.189 µM)	>4	–	–
C=C[C@]1(C)C[C@@H](OC(=O)CSCCOc2cc(=O)oc3cc(F)ccc23)[C@]2(C)[C@H](C)CC[C@]3(CCC(=O)[C@H]32)[C@@H](C)[C@@H]1O	0.125 (≈ 0.208 µM)	>4	0.125 (≈ 0.208 µM)	>4	0.031 (≈ 0.0516 µM)	>4	2	0.25 (≈ 0.416 µM)	0.125 (≈ 0.208 µM)	0.25 (≈ 0.416 µM)	0.125 (≈ 0.208 µM)	>4	–	–
C=C[C@]1(C)C[C@@H](OC(=O)CSCCOc2cc(=O)oc3ccc([N+](=O)[O-])cc23)[C@]2(C)[C@H](C)CC[C@]3(CCC(=O)[C@H]32)[C@@H](C)[C@@H]1O	0.063 (≈ 0.1 µM)	>4	0.063 (≈ 0.1 µM)	>4	0.031 (≈ 0.0494 µM)	2	2	0.063 (≈ 0.1 µM)	0.125 (≈ 0.199 µM)	0.25 (≈ 0.398 µM)	0.125 (≈ 0.199 µM)	2	>4	–
C=C[C@]1(C)C[C@@H](OC(=O)CSc2cc(=O)oc3ccc(Br)cc23)[C@]2(C)[C@H](C)CC[C@]3(CCC(=O)[C@H]32)[C@@H](C)[C@@H]1O	0.063 (≈ 0.102 µM)	>4	0.25 (≈ 0.405 µM)	>4	0.063 (≈ 0.102 µM)	>4	>4	0.25 (≈ 0.405 µM)	0.25 (≈ 0.405 µM)	0.25 (≈ 0.405 µM)	0.125 (≈ 0.202 µM)	2	>4	–
C=C[C@]1(C)C[C@@H](OC(=O)CSCCOc2cc(=O)oc3ccc(OC)cc23)[C@]2(C)[C@H](C)CC[C@]3(CCC(=O)[C@H]32)[C@@H](C)[C@@H]1O	0.125 (≈ 0.204 µM)	>4	0.063 (≈ 0.103 µM)	4	0.031 (≈ 0.0506 µM)	>4	1	0.125 (≈ 0.204 µM)	0.25 (≈ 0.408 µM)	0.25 (≈ 0.408 µM)	0.125 (≈ 0.204 µM)	>4	–	–
C=C[C@]1(C)C[C@@H](OC(=O)CSCCOc2cc(=O)oc3cc(Cl)ccc23)[C@]2(C)[C@H](C)CC[C@]3(CCC(=O)[C@H]32)[C@@H](C)[C@@H]1O	0.125 (≈ 0.203 µM)	>4	0.125 (≈ 0.203 µM)	>4	0.125 (≈ 0.203 µM)	>4	>4	0.063 (≈ 0.102 µM)	1 (≈ 1.62 µM)	0.5 (≈ 0.81 µM)	0.25 (≈ 0.405 µM)	>4	2	–
C=C[C@]1(C)C[C@@H](OC(=O)CSCCOc2cc(=O)oc3ccc(Cl)cc23)[C@]2(C)[C@H](C)CC[C@]3(CCC(=O)[C@H]32)[C@@H](C)[C@@H]1O	2 (≈ 3.24 µM)	>4	1 (≈ 1.62 µM)	>4	0.125 (≈ 0.203 µM)	>4	>4	4 (≈ 6.48 µM)	0.5 (≈ 0.81 µM)	1 (≈ 1.62 µM)	0.5 (≈ 0.81 µM)	>4	–	–
C=C[C@]1(C)C[C@@H](OC(=O)CSc2cc(=O)oc3ccc(OC)cc23)[C@]2(C)[C@H](C)CC[C@]3(CCC(=O)[C@H]32)[C@@H](C)[C@@H]1O	0.125 (≈ 0.22 µM)	2	0.063 (≈ 0.111 µM)	>4	0.063 (≈ 0.111 µM)	>4	2	0.125 (≈ 0.22 µM)	0.125 (≈ 0.22 µM)	0.125 (≈ 0.22 µM)	0.125 (≈ 0.22 µM)	>4	–	4
